Results published in patent publication US12486218B2, “Compounds advantageous in the treatment of central nervous system diseases and disorders” (AurimMed Pharma, Inc., priority 2008, dated 2025).
Read-outs that look alike come from different tables or passages of the source.

Columns and labels:
[1] = test system: SMN2 promoter; assay: SMN2 promoter β-lactamase reporter assay in NSC34 motor neuron-like cells; format: cell-based; conditions: for Promoter (SMN2 promoter test, summary YES/NO): Table 13 summary; for SMN2 promoter activity: treatment for 19 hours at a concentration of 1 μM
Description: FIG. 30 illustrates a screen for SMN2 expression of a number of compounds described herein.
SMN2 promoter activity was measured using NSC34 motor neuron-like cells stably transfected with a β-lactamase (BLA) reporter gene under the control of a 3.4-kilobase fragment of the SMN2 promoter. D156844 was used as a positive control for this assay.

[2] = test system: mice; assay: Maximal Electroshock Seizure (MES) test, mice i.p.; format: in vivo; conditions: for activity in the MES test: mice; for MES, fraction of animals: mice i.p.
[3] = test system: rats; assay: Pilocarpine-induced Status Epilepticus in Rats (prevention; intervention @ 30 min); conditions: for Prevention, Protection: rats, pilocarpine-induced status epilepticus
Description: The animal testing was performed using the protocols developed in the Anticonvulsant Screening Program (ASP) at the National Institute of Neurological Disorders and Stroke (NINDS), National Institutes of Health (NIH).

[4] = test system: mice; assay: Subcutaneous Metrazol Seizure threshold (s.c. MET) test, mice i.p.; format: in vivo; conditions: for activity in the s.c. MET test: mice, at 300 mg/kg; for s.c. MET, fraction of animals: mice i.p.
[5] = test system: mice; assay: 6 Hz (minimal clonic seizure) model, mice i.p.; format: in vivo; conditions: for 6 Hz (32 mA), fraction of animals: mice i.p.; for activity in the 6 Hz (minimal clonic seizure) model: mice
[6] = Rattus norvegicus, 0.5 h, read-out: Intervention @ 30 min, Protection
[7] = Rattus norvegicus, read-out: Prevention, Protection

CC(CC(=O)N1CCC(C(N)=O)CC1)c1ccc(OC(F)(F)F)cc1 (stereo not shown) [BN, 1-[3-(4-Trifluoromethoxy-phenyl)-butyryl]-piperidine-4carboxylic acidamide]
SMN2 promoter assay, evidence of activity (may warrant further study) ([1]; NSC34 BLA reporter cells): show evidence of activity | activity in the MES test ([2]; at 300 mg/kg): activity

COc1ccc(C(C)CC(N)=O)cc1Cl (stereo not shown) [J, 3-(3-chloro-4-methoxy-phenyl)butyramide]
responders at 600 mg/kg [3, 6]: 38% | responders at 600 mg/kg [3, 7]: 75% | activity in the s.c. MET test [4]: activity

COc1ccc(C(C)CC(N)=O)cn1 (racemic) [CI]
6 Hz (32 mA), fraction of animals ([5]; 100 mg/kg @ 0.25 hr): 1/4 @ 0.25 hr

Cc1nccnc1C(C)CC(N)=O (racemic) [CZ]
6 Hz (32 mA), fraction of animals ([5]; 100 mg/kg @ 0.25 hr): 1/4 @ | 6 Hz (32 mA), fraction of animals ([5]; 100 mg/kg @ 0.5 hr): 1/4 @ | 6 Hz (32 mA), fraction of animals ([5]; 100 mg/kg @ 2.0 hr): hrs and 2/4

CC(C)C[C@H](NC(=O)[C@@H]1C[C@H]1c1ccccc1)C(N)=O (mixture of isomers) [Compound Q, trans-2-Phenylcyclopropane-carboxylic acid-((S)-1-carbamoyl-3-methylbutyl)amide]
activity in the 6 Hz (minimal clonic seizure) model ([5]; at 300 mg/kg): activity

Cc1ccc(C(C)CC(N)=O)cn1 (racemic) [CH]
6 Hz (32 mA), fraction of animals ([5]; 50 mg/kg @ 0.25 hr): 1/4, 1/4 | 6 Hz (32 mA), fraction of animals ([5]; 50 mg/kg @ 0.5 hr): 1/4, 1/4

CCNC(=O)CC(C)c1ccc(OC(F)(F)F)cc1 (stereo not shown) [BF, N-Ethyl-3-(4-trifluoromethoxy-phenyl)-butyramide]
6 Hz (32 mA), fraction of animals ([5]; 100 mg/kg @ 0.25 hr): 3/4 | 6 Hz (32 mA), fraction of animals ([5]; 100 mg/kg @ 0.5 hr): 4/4 | 6 Hz (32 mA), fraction of animals ([5]; 100 mg/kg @ 1.0 hr): 2/4 | 6 Hz (32 mA), fraction of animals ([5]; 100 mg/kg @ 2.0 hr): 3/4 | responders at 200 mg/kg [3, 7]: 88% | activity in the MES test ([2]; at 300 mg/kg): activity | activity in the s.c. MET test [4]: activity

Cc1cnc(C(C)CC(N)=O)c(C)n1 (racemic) [DD]
Promoter (SMN2 promoter test, summary YES/NO) [1]: YES | SMN2 promoter activity [1]: increased SMN2 promoter activity | 6 Hz (32 mA), fraction of animals ([5]; 100 mg/kg @ 0.5 hr): 1/4 @ 0.5 hr,

CC(CC(N)=O)c1cccc(F)c1 (stereo not shown) [Compound D, 3-(3-Fluorophenyl)butyramide]
responders at 400 mg/kg [3, 6]: 75% | responders at 200 mg/kg [3, 7]: 100% | activity in the MES test ([2]; at 300 mg/kg): activity | activity in the s.c. MET test [4]: activity

CC(C)c1ccc(C(C)CC(N)=O)cc1 (stereo not shown) [Compound AW, 3-(4-Isopropylphenyl)butyramide]
SMN2 promoter activity [1]: increased SMN2 promoter activity | 6 Hz (32 mA), fraction of animals ([5]; 200 mg/kg @ 0.25 hr): 4/4, 4/4 @ | 6 Hz (32 mA), fraction of animals ([5]; 200 mg/kg @ 0.5 hr): 4/4, 4/4 @ | activity in the 6 Hz (minimal clonic seizure) model ([5]; at 200 mg/kg): activity | responders at 200 mg/kg [3, 6]: 25% | responders at 450 mg/kg [3, 7]: 75% | activity in the MES test ([2]; at 300 mg/kg): activity

Cc1ccc(C(C)CC(N)=O)c(C)n1 (racemic) [DF]
6 Hz (32 mA), fraction of animals ([5]; 100 mg/kg @ 2.0 hr): 1/4 @ 2.0 | 6 Hz (32 mA), fraction of animals ([5]; 100 mg/kg @ 4.0 hr): 1/4 @ 2.0

CC(CC(N)=O)c1cnccn1 (racemic) [DC]
Promoter (SMN2 promoter test, summary YES/NO) [1]: YES | SMN2 promoter activity [1]: increased SMN2 promoter activity

CC(C)Oc1ccc(C(C)CC(N)=O)cc1 (racemic) [CB]
Prevention, Protection ([3]; dose 200 mg/kg): 100% | MES, fraction of animals ([2]; 100 mg/kg @ 0.25 hr): 3/3 | MES, fraction of animals ([2]; 100 mg/kg @ 1.0 hr): 1/3

NC(=O)CC(c1ccc2c(c1)OCCO2)C1CC1 (stereo not shown) [AP, 3-Cyclopropyl-3-(2,3dihydro-benzo[1,4]dioxin-6-yl)propionamide]
responders at 600 mg/kg [3, 6]: 75% | responders at 450 mg/kg [3, 7]: 75% | activity in the MES test ([2]; at 300 mg/kg): activity | activity in the s.c. MET test [4]: activity

CNC(=O)CC(C)c1ccc(OC(F)(F)F)cc1 (stereo not shown) [BC, N-Methyl-3-(4-trifluoromethoxyphenyl)-butyramide]
activity in the s.c. MET test [4]: activity

CCc1nccnc1C(C)CC(N)=O (racemic) [DB]
SMN2 promoter activity [1]: increased SMN2 promoter activity | 6 Hz (32 mA), fraction of animals ([5]; 100 mg/kg @ 4.0 hr): 1/4 @ 4.0 hrs.

CC[C@H](NC(=O)[C@@H]1C[C@H]1c1ccccc1)C(N)=O (mixture of isomers) [Compound Q-1, trans-2-Phenylcyclopropane-carboxylic acid-((S)-1-carbamoyl-propyl)amide]
6 Hz (32 mA), fraction of animals ([5]; 50 mg/kg @ 0.25 hr): 1/4 @0.25 | 6 Hz (32 mA), fraction of animals ([5]; 100 mg/kg @ 0.25 hr): 4/4 | 6 Hz (32 mA), fraction of animals ([5]; 100 mg/kg @ 0.5 hr): 3/4 | 6 Hz (32 mA), fraction of animals ([5]; 100 mg/kg @ 1.0 hr): 4/4 | 6 Hz (32 mA), fraction of animals ([5]; 100 mg/kg @ 2.0 hr): 1/4 | activity in the 6 Hz (minimal clonic seizure) model ([5]; at 100 mg/kg): activity | MES, fraction of animals ([2]; 100 mg/kg @ 0.5 hr): 2/3 | MES, fraction of animals ([2]; 100 mg/kg @ 4.0 hr): 1/3 | activity in the MES test ([2]; at 300 mg/kg): activity | activity in the s.c. MET test [4]: activity

COc1ccc(C2(CC(N)=O)CCCC2)cc1 [AZ]
SMN2 promoter activity [1]: increased SMN2 promoter activity

CC(O)(CC(N)=O)c1ccc(OC(F)(F)F)cc1 (stereo not shown) [Compound CC, 3-hydroxy-3-(4(trifluoromethoxy)-phenyl)butanamide]
responders at 200 mg/kg [3, 7]: 100% | MES, fraction of animals ([2]; 100 mg/kg @ 0.5 hr): 3/3 | MES, fraction of animals ([2]; 100 mg/kg @ 4.0 hr): 2/3

CC(C)C(CC(N)=O)c1ccc(Cl)cc1 (stereo not shown) [AR, 3-(4-Chloro-phenyl)-4-methyl-pentanoic-acid-amide]
SMN2 promoter assay, evidence of activity (may warrant further study) ([1]; NSC34 BLA reporter cells): show evidence of activity | 6 Hz (32 mA), fraction of animals ([5]; 100 mg/kg @ 0.25 hr): 3/4 | 6 Hz (32 mA), fraction of animals ([5]; 100 mg/kg @ 0.5 hr): 2/4 | activity in the MES test ([2]; at 300 mg/kg): activity | activity in the s.c. MET test [4]: activity

CC(CC(N)=O)Oc1ccc(C#N)cc1 (stereo not shown) [Compound O, 3-(4-Cyanophenoxy)butyramide]
responders at 450 mg/kg [3, 7]: 50%

CC(CC(=O)N1CCOCC1)c1ccc(OC(F)(F)F)cc1 (stereo not shown) [BI, 1-Morpholin-4-yl-3-(4-trifluoromethoxy-phenyl)-butan-1-one]
6 Hz (32 mA), fraction of animals ([5]; 50 mg/kg @ 0.25 hr): 2/4 | 6 Hz (32 mA), fraction of animals ([5]; 50 mg/kg @ 0.5 hr): 1/4 | activity in the s.c. MET test [4]: activity

CC[C@H](NC(=O)CC(C)c1ccc(OC(F)(F)F)cc1)C(N)=O (stereo partly drawn) [BR, N-((S)-1-Carbamoyl-propyl)-3-(4-trifluoromethoxy-phenyl)-butyramide]
6 Hz (32 mA), fraction of animals ([5]; 100 mg/kg @ 0.5 hr): 1/4 @ 0.5 | activity in the MES test ([2]; at 100 mg/kg): activity

CC(CC(N)=O)c1ccc2c(c1)OCCO2 (stereo not shown) [K, 3-(3,4-ethylenedioxy-phenyl)butyramide]
SMN2 promoter assay, particularly strong hits ([1]; NSC34 BLA reporter cells): particularly strong hits | Promoter (SMN2 promoter test, summary YES/NO) [1]: YES | SMN2 promoter activity [1]: increased SMN2 promoter activity | responders at 600 mg/kg [3, 6]: 38% | responders at 300 mg/kg [3, 7]: 50%

CC(CC(N)=O)c1ccc(Cl)c(Cl)c1 (stereo not shown) [BW, 3-[3,4-dichloro-phenyl]butyramide]
MES, fraction of animals ([2]; 100 mg/kg @ 0.5 hr): 1/3 @ | s.c. MET, fraction of animals ([4]; 30 mg/kg @ 4.0 hr): 1/1 @ 4.0 | s.c. MET, fraction of animals ([4]; 100 mg/kg @ 4.0 hr): 1/1 @ 4.0

Cc1nc2ccccc2nc1C(C)CC(N)=O (racemic) [DE]
6 Hz (32 mA), fraction of animals ([5]; 100 mg/kg @ 0.25 hr): 1/4 @ | 6 Hz (32 mA), fraction of animals ([5]; 100 mg/kg @ 0.5 hr): 1/4 @

CC(CC(=O)N[C@@H](C)C(N)=O)c1ccc(OC(F)(F)F)cc1 (stereo partly drawn) [BS, N-((S)-1-Carbamoyl-ethyl)-3-(4-trifluoromethoxy-phenyl)-butyramide]
6 Hz (32 mA), fraction of animals ([5]; 100 mg/kg @ 1.0 hr): 1/4 @ 1.0 | activity in the MES test ([2]; at 300 mg/kg): activity

CCOc1ccc(C(C)CC(N)=O)cc1 (racemic) [CA]
Promoter (SMN2 promoter test, summary YES/NO) [1]: YES | SMN2 promoter activity [1]: increased SMN2 promoter activity | activity in the 6 Hz (minimal clonic seizure) model ([5]; at 100 mg/kg): activity | Prevention, Protection ([3]; dose 600 mg/kg): 100%

CC(C)C[C@@H](NC(=O)CC(C)c1ccc(OC(F)(F)F)cc1)C(N)=O (stereo partly drawn) [BP, (R)-4-Methyl-2-[3-(4-trifluoromethoxy-phenyl)-butyrylamino]-pentanoic acid amide]
6 Hz (32 mA), fraction of animals ([5]; 100 mg/kg @ 0.25 hr): 1/4 @ 0.25

NC(=O)CC1(c2ccc(Cl)cc2)CCCCC1 [AK]
6 Hz (32 mA), fraction of animals ([5]; 100 mg/kg @ 0.25 hr): 4/4 | 6 Hz (32 mA), fraction of animals ([5]; 100 mg/kg @ 0.5 hr): 3/4 | 6 Hz (32 mA), fraction of animals ([5]; 100 mg/kg @ 1.0 hr): 1/4 @ | MES, fraction of animals ([2]; 100 mg/kg @ 0.25 hr): 3/4 | MES, fraction of animals ([2]; 100 mg/kg @ 2.0 hr): 1/4

CCC(CC(N)=O)c1ccc(OC)cc1 (stereo not shown) [AB, 3-(4-Methoxy-phenyl)-pentanoicacid amide]
responders at 450 mg/kg [3, 7]: 100%

NC(=O)C1CC1(c1ccccc1)c1ccccc1 (stereo not shown) [BB, 2,2-Diphenyl-cyclopropanecarboxylicacid amide]
SMN2 promoter activity [1]: increased SMN2 promoter activity | activity in the 6 Hz (minimal clonic seizure) model ([5]; at 100 mg/kg): activity
